± gives the expanded uncertainty stated by the source.
Conditions: 101.33 kPa, Liquid

## CCCCn1cc[n+](C)c1.F[P-](F)(F)(F)(F)F [1-butyl-3-methylimidazolium hexafluorophosphate]
293.15 K, Vibrating tube method
  mass density: 1380.33 ± 13 kg/m3

## CCCCCCCCCCC [undecane]
298.15 K
  mass density: 740.289 ± 0.92 kg/m3

## Cc1ccccc1 [toluene]
298.15 K
  mass density: 864.989 ± 0.18 kg/m3

## c1ccccc1 [benzene]
298.15 K
  mass density: 873.945 ± 0.64 kg/m3

## Cc1cccc(C)c1 [1,3-dimethylbenzene]
293.15 K
  mass density: 868.124 ± 0.65 kg/m3

## CCCCCCCCC [nonane]
293.15 K
  mass density: 718.418 ± 0.96 kg/m3

Reference: the NIST ThermoML archive (doi:10.1016/j.fluid.2008.01.007)
